Experimental data published in PubChem BioAssay (NCI).
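Interpolation was linear, between the two tested concentrations surrounding the appropriate level; five concentrations were tested over 48 hours in 96-well plates. The concentration for 50% growth inhibition is given as GI50. At the TGI there is no net growth.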 Where a SMILES comes first, the peptide text is derived from it. [ ]: non-standard residue; d: D form. The star is where a group is joined. ξ: configuration not given here. 4Abz = Nc1ccc(C(=O)O)cc1; ξL = CC(C)CC(N)C(=O)O; NHOH = ON*

What was measured:
Experiment in all cases: NCI-60 cell line screen, 48 h
IGROV1 ovarian = tested on: IGROV1 ovarian
NCI-H23 lung = tested on: NCI-H23 lung
SW-620 colon = tested on: SW-620 colon
A498 renal = tested on: A498 renal
ACHN renal = tested on: ACHN renal
786-0 renal = tested on: 786-0 renal
OVCAR-3 ovarian = tested on: OVCAR-3 ovarian
RXF 393 renal = tested on: RXF 393 renal
NCI-H226 lung = tested on: NCI-H226 lung
NCI-H522 lung = tested on: NCI-H522 lung

Structure (SMILES): COc1ccc2c(c1)C(CCN)C(=O)N2 (configuration not stated)
- TGI (IGROV1 ovarian): > 100 µM
- TGI (NCI-H23 lung): > 100 µM
- TGI (SW-620 colon): > 100 µM
- TGI (A498 renal): > 100 µM
- TGI (ACHN renal): > 100 µM
- TGI (786-0 renal): > 100 µM
- TGI (OVCAR-3 ovarian): > 100 µM

Structure (SMILES): CC(C)CC(NC(=O)[C@@H]1CCCN1C(=O)CNC(=O)c1ccc(N)cc1)C(=O)N[C@H](C)C(=O)NO (some centres not stated) (H-[4Abz]GP[ξL][dA]-{NHOH})
- GI50 (IGROV1 ovarian): > 100 µM
- TGI (IGROV1 ovarian): > 100 µM
- GI50 (NCI-H23 lung): > 100 µM
- TGI (NCI-H23 lung): > 100 µM
- GI50 (RXF 393 renal): > 100 µM
- TGI (RXF 393 renal): > 100 µM
- GI50 (SW-620 colon): > 100 µM
- TGI (SW-620 colon): > 100 µM
- GI50 (ACHN renal): > 100 µM
- TGI (ACHN renal): > 100 µM
- GI50 (NCI-H226 lung): > 100 µM
- TGI (NCI-H226 lung): > 100 µM
- GI50 (786-0 renal): > 100 µM
- TGI (786-0 renal): > 100 µM
- GI50 (NCI-H522 lung): > 100 µM
- TGI (NCI-H522 lung): > 100 µM
- GI50 (OVCAR-3 ovarian): > 100 µM
- TGI (OVCAR-3 ovarian): > 100 µM

Structure (SMILES): Cn1c(=O)c(C2c3ccccc3Oc3c2c(=O)n(C)c2ccccc32)c(O)c2ccccc21 (configuration not stated)
- TGI (IGROV1 ovarian): > 100 µM
- TGI (NCI-H23 lung): > 100 µM
- TGI (RXF 393 renal): > 100 µM
- TGI (SW-620 colon): > 100 µM
- TGI (ACHN renal): > 100 µM
- TGI (NCI-H226 lung): > 100 µM
- TGI (786-0 renal): > 100 µM
- TGI (NCI-H522 lung): 54.6 µM
- TGI (OVCAR-3 ovarian): > 100 µM

Structure (SMILES): CCOc1cccc2cccnc12
- TGI (IGROV1 ovarian): > 100 µM
- TGI (NCI-H23 lung): > 100 µM
- TGI (RXF 393 renal): > 100 µM
- TGI (SW-620 colon): > 100 µM
- TGI (ACHN renal): > 100 µM
- TGI (NCI-H226 lung): > 100 µM
- TGI (786-0 renal): > 100 µM
- TGI (NCI-H522 lung): > 100 µM
- TGI (OVCAR-3 ovarian): > 100 µM

Structure (SMILES): COC(=O)C(=O)C(C(=O)C(=O)Nc1ccc(Cl)cc1Cl)c1nc2ccc(Cl)cc2[nH]c1=O (configuration not stated)
- TGI (IGROV1 ovarian): > 100 µM
- TGI (NCI-H23 lung): > 100 µM
- TGI (SW-620 colon): > 100 µM
- TGI (ACHN renal): > 100 µM
- TGI (NCI-H226 lung): > 100 µM
- TGI (786-0 renal): > 100 µM
- TGI (NCI-H522 lung): > 100 µM
- TGI (OVCAR-3 ovarian): > 100 µM

Structure (SMILES): COc1ccc(-c2ccc(/C=N/n3cnn(CN4CCN(C)CC4)c3=S)o2)c([N+](=O)[O-])c1
- GI50 (IGROV1 ovarian): 54.7 µM
- TGI (IGROV1 ovarian): > 100 µM
- GI50 (NCI-H23 lung): 16.8 µM
- TGI (NCI-H23 lung): 54.6 µM
- GI50 (RXF 393 renal): 24.4 µM
- TGI (RXF 393 renal): > 100 µM
- GI50 (SW-620 colon): 31.6 µM
- TGI (SW-620 colon): > 100 µM
- GI50 (ACHN renal): 30.1 µM
- TGI (ACHN renal): 70.5 µM
- GI50 (786-0 renal): 19.6 µM
- TGI (786-0 renal): > 100 µM
- GI50 (NCI-H522 lung): 45 µM
- TGI (NCI-H522 lung): > 100 µM
- GI50 (OVCAR-3 ovarian): 26.7 µM
- TGI (OVCAR-3 ovarian): 66.9 µM

Structure (SMILES): COc1ccccc1NC(=O)CC(=O)NNCC(=O)Nc1nc(-c2ccccc2)cs1
- TGI (IGROV1 ovarian): > 100 µM
- TGI (NCI-H23 lung): > 100 µM
- TGI (RXF 393 renal): > 100 µM
- TGI (SW-620 colon): > 100 µM
- TGI (NCI-H226 lung): > 100 µM
- TGI (786-0 renal): > 100 µM
- TGI (NCI-H522 lung): > 100 µM
- TGI (OVCAR-3 ovarian): > 100 µM

Structure (SMILES): CCOC(=O)C(=C=Cc1cccs1)C(=O)c1ccccc1
- TGI (IGROV1 ovarian): 34.6 µM
- TGI (NCI-H23 lung): 28.8 µM
- TGI (SW-620 colon): 31.9 µM
- TGI (A498 renal): 35.5 µM
- TGI (ACHN renal): 33.3 µM
- TGI (NCI-H226 lung): 32.7 µM
- TGI (786-0 renal): 29.5 µM
- TGI (NCI-H522 lung): 28.3 µM

Structure (SMILES): COC(=O)C1=C(SC)SC2(C(=O)OC)C3C=C(C)C4C(N13)C42C(=O)OC (configuration not stated)
- TGI (IGROV1 ovarian): > 100 µM
- TGI (NCI-H23 lung): > 100 µM
- TGI (RXF 393 renal): > 100 µM
- TGI (SW-620 colon): > 100 µM
- TGI (ACHN renal): > 100 µM
- TGI (NCI-H226 lung): > 100 µM
- TGI (786-0 renal): > 100 µM
- TGI (NCI-H522 lung): > 100 µM
- TGI (OVCAR-3 ovarian): > 100 µM

Structure (SMILES): CC(=O)NC1=NC(=O)/C(=C/c2ccc(Cl)cc2Cl)N1C
- TGI (IGROV1 ovarian): > 100 µM
- TGI (NCI-H23 lung): > 100 µM
- TGI (RXF 393 renal): > 100 µM
- TGI (SW-620 colon): > 100 µM
- TGI (ACHN renal): > 100 µM
- TGI (NCI-H226 lung): 82.5 µM
- TGI (786-0 renal): > 100 µM
- TGI (NCI-H522 lung): > 100 µM
- TGI (OVCAR-3 ovarian): > 100 µM

Structure (SMILES): COC(=O)CC[C@@H](NC(=O)C(C)NC(=O)COC1C(O)C(COC(=O)CCCCCCCCCCNC(=O)c2ccc([N+](=O)[O-])c3[nH]c4cc(Br)ccc4c(=O)c23)OC(OCc2ccccc2)C1NC(C)=O)C(N)=O (some centres not stated)
- TGI (IGROV1 ovarian): 49.8 µM
- TGI (NCI-H23 lung): > 100 µM
- TGI (RXF 393 renal): 80.3 µM
- TGI (SW-620 colon): > 100 µM
- TGI (ACHN renal): > 100 µM
- TGI (NCI-H226 lung): 98 µM
- TGI (786-0 renal): > 100 µM
- TGI (NCI-H522 lung): > 100 µM
- TGI (OVCAR-3 ovarian): > 100 µM

Structure (SMILES): O=C(N/C(=C\c1cc(Cl)ccc1Cl)c1nc2ccccc2[nH]1)c1ccccc1
- TGI (NCI-H23 lung): 96.9 µM
- TGI (RXF 393 renal): 64.4 µM
- TGI (SW-620 colon): 52.8 µM
- TGI (ACHN renal): > 100 µM
- TGI (786-0 renal): 35.7 µM
- TGI (NCI-H522 lung): > 100 µM
- TGI (OVCAR-3 ovarian): > 100 µM

Structure (SMILES): OCCOCn1nc(-c2ccccc2)nc1-c1cnccn1
- TGI (IGROV1 ovarian): > 100 µM
- TGI (NCI-H23 lung): > 100 µM
- TGI (RXF 393 renal): > 100 µM
- TGI (SW-620 colon): > 100 µM
- TGI (786-0 renal): > 100 µM
- TGI (NCI-H522 lung): > 100 µM
- TGI (OVCAR-3 ovarian): > 100 µM

Structure (SMILES): O=C(CC1Sc2ccccc2NC1=O)Nc1ccc([N+](=O)[O-])cc1[N+](=O)[O-] (configuration not stated)
- TGI (IGROV1 ovarian): 39.1 µM
- TGI (NCI-H23 lung): 27.2 µM
- TGI (RXF 393 renal): 26.3 µM
- TGI (SW-620 colon): 32.4 µM
- TGI (ACHN renal): 30.3 µM
- TGI (NCI-H226 lung): 42.6 µM
- TGI (786-0 renal): 31.7 µM
- TGI (OVCAR-3 ovarian): 31.5 µM

Structure (SMILES): COc1cc(OC)c(Oc2cccc(OC)c2OC)c(OC)c1
- TGI (IGROV1 ovarian): > 100 µM
- TGI (NCI-H23 lung): > 100 µM
- TGI (SW-620 colon): > 100 µM
- TGI (A498 renal): > 100 µM
- TGI (ACHN renal): > 100 µM
- TGI (NCI-H226 lung): > 100 µM
- TGI (786-0 renal): > 100 µM
- TGI (NCI-H522 lung): > 100 µM
- TGI (OVCAR-3 ovarian): > 100 µM

Structure (SMILES): O=c1c2ccccc2oc2nccnc12
- TGI (IGROV1 ovarian): > 100 µM
- TGI (NCI-H23 lung): > 100 µM
- TGI (RXF 393 renal): > 100 µM
- TGI (SW-620 colon): > 100 µM
- TGI (A498 renal): > 100 µM
- TGI (ACHN renal): > 100 µM
- TGI (786-0 renal): > 100 µM
- TGI (OVCAR-3 ovarian): > 100 µM

Structure (SMILES): Cc1ccc(NC(=O)C(=O)C2C(=O)C3=C(CC2(C)C)NC2C=CC=CC2S3)c(C)c1 (configuration not stated)
- TGI (IGROV1 ovarian): > 100 µM
- TGI (NCI-H23 lung): > 100 µM
- TGI (RXF 393 renal): > 100 µM
- TGI (SW-620 colon): > 100 µM
- TGI (ACHN renal): > 100 µM
- TGI (NCI-H226 lung): > 100 µM
- TGI (786-0 renal): > 100 µM
- TGI (NCI-H522 lung): > 100 µM
